Key:
MIN mouse = conditions: Aza treatment in combination with a genetic reduction in DNA methyltransferase I activity; cited from earlier work
HT-29 cells = conditions: Aza treatment; inhibition parallels induction of IFN responsive genes; cited from earlier work
HCT116 cells = test: microarray differential expression, HCT116 cells treated with 500 nM Aza; type: cell-based, human; conditions: vs untreated, log base 2, negative = upregulation
Protocol: HT29 cells were derived from a Grade II adenocarcinoma of the colon obtained from a person. HCT116 cells are a subpopulation of malignant cells isolated from a primary cell culture of a single human colonic carcinoma (Brattain et al. (1981) Cancer Res 41:1751-6). HMEC cells are a primary human epithelial cell line derived from the breast tissue of a normal donor. HT29 and HCT116 colorectal carcinoma cells (American Type Culture Collection, Manassas Va.) were cultured in McCoy's medium supplemented with 10% fetal bovine serum (Invitrogen) at 37° C. and 5% CO2. Treated cells were exposed to 500 nM 5-aza-2-deoxycytidine (Aza; Sigma-Aldrich) 24 hours after passage in complete culture medium. Control cultures were treated in parallel with phosphate buffered saline vehicle. After twenty-four hours, culture medium was replaced with drug-free medium. Control and Aza-treated cells were subcultured at equal densities at 1 and 5 days after the initial treatment, and proliferation was measured at the subsequent time point using a Coulter counter (Beckman Coulter, Fullerton Calif.). Cells were harvested 5 days after the initial treatment.
Cells were harvested and lysed in 1 ml of TRIZOL reagent (5×10^6 cells/ml; Invitrogen). The lysates were vortexed thoroughly and incubated at room temperature for 2-3 minutes and extracted with 0.5 ml chloroform. The extract was mixed, incubated at room temperature for 5 minutes, and centrifuged at 16,000× g for 15 minutes at 4° C. The aqueous layer was collected, and an equal volume of isopropanol was added. Samples were mixed, incubated at room temperature for 10 minutes, and centrifuged at 16,000× g for 20 minutes at 4° C. The supernatant was removed, and the RNA pellet was washed with 1 ml of 70% ethanol, centrifuged at 16,000× g at 4° C., and resuspended in RNAse-free water. The concentration of the RNA was determined by measuring the optical density at 260 nm.
Poly(A) RNA was prepared using an OLIGOTEX mRNA kit (Qiagen) with the following modifications: OLIGOTEX beads were washed in tubes instead of on spin columns, resuspended in elution buffer, and then loaded onto spin columns to recover mRNA. To obtain maximum yield, the mRNA was eluted twice.
Each poly(A) RNA sample was reverse transcribed using MMLV reverse-transcriptase, 0.05 pg/μl oligo-d(T) primer (21mer), 1× first strand buffer, 0.03 units/ul RNAse inhibitor, 500 uM dAT?, 500 uM dGTP, 500 uM dTTP, 40 uM dCTP, and 40 uM either dCTP-Cy3 or dCTP-Cy5 (APB). The reverse transcription reaction was performed in a […] volume containing 200 ng poly(A) RNA using the GEMBRIGHT kit (Incyte Genomics). Specific control poly(A) RNAs (YCFRO6, YCFR45, YCFR67, YCFR85, YCFR43, YCFR22, YCFR23, YCFR25, YCFR44, YCFR26) were synthesized by in vitro transcription from non-coding yeast genomic DNA (W. Lei, unpublished). As quantitative controls, control mRNAs (YCFRO6, YCFR45, YCFR67, and YCFR85) at 0.002 ng, 0.02 ng, 0.2 ng, and 2 ng were diluted into reverse transcription reaction at ratios of 1:100,000, 1:10,000, 1:1000, 1:100 (w/w) to sample mRNA, respectively. To sample differential expression patterns, control mRNAs (YCFR43, YCFR22, YCFR23, YCFR25, YCFR44, YCFR26) were diluted into reverse transcription reaction at ratios of 1:3, 3:1, 1:10, 10:1, 1:25, 25:1 (w/w) to sample mRNA. Reactions were incubated at 37° C. for 2 hours, treated with […] of 0.5M sodium hydroxide, and incubated for 20 minutes at 85° C. to the stop the reaction and degrade the RNA.
cDNAs were purified using two successive CHROMA SPIN 30 gel filtration spin columns (Clontech). Cy3- and Cy5-labeled reaction samples were combined as described below and ethanol precipitated using […] of 100% ethanol. The cDNAs were then dried to completion using a SpeedVAC system (Savant Instruments, Holbrook N.Y.) and resuspended in 14 μl 5× SSC, 0.2% SDS. […]

Compound: Nc1ncn([C@H]2C[C@H](O)[C@@H](CO)O2)c(=O)n1 [Aza, 5-aza-2-deoxycytidine]
- polyp formation (MIN mouse): reduced polyp formation
- growth of HT-29 cells in culture (HT-29 cells): inhibits growth
- differential expression, Clone ID 2416222, HCT116 t/Aza (5d) (HCT116 cells; SEQ ID NO:1 hypothetical protein): −1.72
- differential expression, Clone ID 4103545, HCT116 t/Aza (5d) (HCT116 cells; SEQ ID NO:2 Incyte Unique): −1.35
- differential expression, Clone ID 322569, HCT116 t/Aza (5d) (HCT116 cells; SEQ ID NO:3 interferon-inducible protein): −1.17
- differential expression, Clone ID 5322134, HCT116 t/Aza (5d) (HCT116 cells; SEQ ID NO:5 chromosome 6p21.3, HLA Class I region): −1.72
- differential expression, Clone ID 1698458, HCT116 t/Aza (5d) (HCT116 cells; SEQ ID NO:6 unnamed protein product): −1.32
- differential expression, Clone ID 1871523, HCT116 t/Aza (5d) (HCT116 cells; SEQ ID NO:7 KIAA1046 protein): −0.85
- differential expression, Clone ID 6024084, HCT116 t/Aza (5d) (HCT116 cells; SEQ ID NO:8 putative tumor antigen): −2.66
- differential expression, Clone ID 3810006, HCT116 t/Aza (5d) (HCT116 cells; SEQ ID NO:9 Incyte Unique): −0.85
- differential expression, Clone ID 4508879, HCT116 t/Aza (5d) (HCT116 cells; SEQ ID NO:10 Incyte Unique): −0.89
- differential expression, Clone ID 4225379, HCT116 t/Aza (5d) (HCT116 cells; SEQ ID NO:11 U 6 RNA): −0.89
- differential expression, Clone ID 3463713, HCT116 t/Aza (5d) (HCT116 cells; SEQ ID NO:12 cDNA clone ZD16H10): −1.46
- differential expression, Clone ID 2998017, HCT116 t/Aza (5d) (HCT116 cells; SEQ ID NO:13, 14 T-cell receptor gamma): −1.23
- differential expression, Clone ID 4318273, HCT116 t/Aza (5d) (HCT116 cells; SEQ ID NO:15 pTR5 repetitive sequence): −1.07
- differential expression, Clone ID 1649414, HCT116 t/Aza (5d) (HCT116 cells; SEQ ID NO:16 Hep27 protein): −1.00
- differential expression, Clone ID 1684742, HCT116 t/Aza (5d) (HCT116 cells; SEQ ID NO:18 cDNA FLJ20222): −0.89
- differential expression, Clone ID 2825816, HCT116 t/Aza (5d) (HCT116 cells; SEQ ID NO:19 KIAA0412): −0.89
- differential expression, Clone ID 2440943, HCT116 t/Aza (5d) (HCT116 cells; SEQ ID NO:21 Incyte Unique): −1.00
- differential expression, Clone ID 1294339, HCT116 t/Aza (5d) (HCT116 cells; SEQ ID NO:22 PDGF-B): −0.89
- differential expression, Clone ID 5104741, HCT116 t/Aza (5d) (HCT116 cells; SEQ ID NO:23 cDNA FLJ10570): −1.23
- differential expression, Clone ID 1855389, HCT116 t/Aza (5d) (HCT116 cells; SEQ ID NO:24 pTR7 repetitive sequence): −1.51
- differential expression, Clone ID 5207613, HCT116 t/Aza (5d) (HCT116 cells; SEQ ID NO:25 chromosome 21 segment HS21C049): −1.67
- differential expression, Clone ID 3207902, HCT116 t/Aza (5d) (HCT116 cells; SEQ ID NO:26 hypothetical protein): −0.89
- differential expression, Clone ID 4999769, HCT116 t/Aza (5d) (HCT116 cells; SEQ ID NO:27 ZNFpT17): −1.09
- differential expression, Clone ID 408886, HCT116 t/Aza (5d) (HCT116 cells; SEQ ID NO:28 transketolase): −2.32
- differential expression, Clone ID 4764233, HCT116 t/Aza (5d) (HCT116 cells; SEQ ID NO:30 GAGE-8): −1.79
- differential expression, Clone ID 2511379, HCT116 t/Aza (5d) (HCT116 cells; SEQ ID NO:31 GAGE-7B): −1.34
- differential expression, Clone ID 2471817, HCT116 t/Aza (5d) (HCT116 cells; SEQ ID NO:33 cDNA clone YU62C03): −0.89
- differential expression, Clone ID 3333736, HCT116 t/Aza (5d) (HCT116 cells; SEQ ID NO:34 MAGE-11 antigen): −1.38
- differential expression, Clone ID 1304365, HCT116 t/Aza (5d) (HCT116 cells; SEQ ID NO:35 GAGE-8): −1.78
- differential expression, Clone ID 2657056, HCT116 t/Aza (5d) (HCT116 cells; SEQ ID NO:37, 38 MAGE-4b antigen): −1.58
- differential expression, Clone ID 2507719, HCT116 t/Aza (5d) (HCT116 cells; SEQ ID NO:39 MAGE-9 antigen): −1.70
- differential expression, Clone ID 4688, HCT116 t/Aza (5d) (HCT116 cells; SEQ ID NO:41 MAGE-1): −1.14
- differential expression, Clone ID 2068708, HCT116 t/Aza (5d) (HCT116 cells; SEQ ID NO:42 HM74): −0.46
- differential expression, Clone ID 23770, HCT116 t/Aza (5d) (HCT116 cells; SEQ ID NO:43 1-8D): −0.72
- differential expression, Clone ID 1616783, HCT116 t/Aza (5d) (HCT116 cells; SEQ ID NO:45 Incyte Unique): −0.80
- differential expression, Clone ID 820942, HCT116 t/Aza (5d) (HCT116 cells; SEQ ID NO:46 cDNA FLJ20120): −0.26
- differential expression, Clone ID 891322, HCT116 t/Aza (5d) (HCT116 cells; SEQ ID NO:47 Incyte Unique): −0.58
- differential expression, Clone ID 2755836, HCT116 t/Aza (5d) (HCT116 cells; SEQ ID NO:48 U5 A RNA): −0.58
- differential expression, Clone ID 1227521, HCT116 t/Aza (5d) (HCT116 cells; SEQ ID NO:49 phospholipid scramblase 1): −0.58
- differential expression, Clone ID 2200842, HCT116 t/Aza (5d) (HCT116 cells; SEQ ID NO:50 retinoid inducible gene 1): 0.00
- differential expression, Clone ID 2238363, HCT116 t/Aza (5d) (HCT116 cells; SEQ ID NO:51 interferon induced): −0.24
- differential expression, Clone ID 1495382, HCT116 t/Aza (5d) (HCT116 cells; SEQ ID NO:53 TRAIL): −0.26
- differential expression, Clone ID 1998269, HCT116 t/Aza (5d) (HCT116 cells; SEQ ID NO:55 rhoB): −0.63
- differential expression, Clone ID 1919287, HCT116 t/Aza (5d) (HCT116 cells; SEQ ID NO:56 hepatitis C-associated microtubular aggregate): 0.00
- differential expression, Clone ID 2637446, HCT116 t/Aza (5d) (HCT116 cells; SEQ ID NO:57 HE4 protein): −0.29
- differential expression, Clone ID 1962141, HCT116 t/Aza (5d) (HCT116 cells; SEQ ID NO:58 Similar to keratin 7): −0.92
- differential expression, Clone ID 4933404, HCT116 t/Aza (5d) (HCT116 cells; SEQ ID NO:60 Incyte Unique): −2.08
- differential expression, Clone ID 2150288, HCT116 t/Aza (5d) (HCT116 cells; SEQ ID NO:61 Keratin 8): −0.92
- differential expression, Clone ID 2697455, HCT116 t/Aza (5d) (HCT116 cells; SEQ ID NO:61 Keratin 8): −1.14

Source: US20030013099A1, “Genes regulated by DNA methylation in colon tumors” (priority 2001, published 2003)
